Drawing on PubChem BioAssay (NCI), this text covers TGI and GI50 for 14 molecules.

The TGI is the concentration giving total growth inhibition. As usually defined, the GI50 is the concentration giving 50% growth inhibition.

Test systems include SF-539 CNS; A498 renal; CCRF-CEM leukemia; KM12 colon; NCI-H460 lung; T-47D breast; HOP-92 NSCLC; SF-268 CNS; HCT-15 colon; SF-295 CNS.
Experiment in all cases: DTP human tumour cell line panel, 48 h

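A five-concentration, 48-hour dose response in 96-well plates underlies each endpoint, interpolated linearly between surrounding concentrations. Here, GI50 denotes the concentration required for 50% inhibition of growth. At the TGI there is no net growth.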

`COc1ccc(N=C(C)c2ccncc2)cc1`: the TGI in the experiment with SF-539 CNS is 61.4 µM; in the experiment with A498 renal it was above 100 µM; in the experiment on CCRF-CEM leukemia, above 100 µM; in the experiment with KM12 colon it was above 100 µM; in the experiment with NCI-H460 lung, above 100 µM; with T-47D breast, above 100 µM. The total growth inhibition concentration (TGI) in the experiment on HOP-92 NSCLC, with SF-268 CNS, in the experiment with HCT-15 colon and with SF-295 CNS was above 100 µM in each case.
Turning to `COCC1CCCN1c1ccc(/C=C(/C#N)C(N)=S)cc1` (centres undefined), the GI50 was above 100 µM in the experiment with SF-539 CNS; above 100 µM with A498 renal; 5.04 µM with CCRF-CEM leukemia; 39.5 µM in the experiment on KM12 colon; above 100 µM with NCI-H460 lung; 30.6 µM in the experiment with T-47D breast. Besides, the GI50 with HOP-92 NSCLC was 8.32 µM; with SF-268 CNS, above 100 µM; with HCT-15 colon, above 100 µM; in the experiment on SF-295 CNS, above 100 µM. Besides, the TGI in the experiment with SF-539 CNS is above 100 µM; with A498 renal, above 100 µM; in the experiment on CCRF-CEM leukemia, 20.6 µM; in the experiment on KM12 colon it was above 100 µM; with NCI-H460 lung, above 100 µM; with T-47D breast it was above 100 µM. The TGI is 89.2 µM with HOP-92 NSCLC, above 100 µM in the experiment with SF-268 CNS, above 100 µM in the experiment on HCT-15 colon and above 100 µM in the experiment with SF-295 CNS.
As to `CC1(C)CC[C@]2(C)CC=C3[C@]4(C)CC[C@H]5C(C)(C)C(=O)CC[C@]5(C)[C@H]4CC[C@@]3(C)[C@H]2C1`, the total growth inhibition concentration (TGI) with SF-539 CNS, with A498 renal, with CCRF-CEM leukemia, in the experiment with KM12 colon, with T-47D breast and with HOP-92 NSCLC was above 100 µM each time. The TGI in the experiment on SF-268 CNS, with HCT-15 colon and in the experiment with SF-295 CNS was above 100 µM each time.
Take `COC(=O)C1(Cc2ccc3c(c2)CCC3)Cc2ccc3c(c2C1O)CCC3` (centres undefined): the TGI is 47.4 µM in the experiment with SF-539 CNS; 25.1 µM with A498 renal; above 100 µM in the experiment on CCRF-CEM leukemia; 38.9 µM in the experiment with KM12 colon; 54.4 µM in the experiment with NCI-H460 lung; 33 µM in the experiment with T-47D breast. Moreover, the TGI is 21.9 µM in the experiment with HOP-92 NSCLC, 69.8 µM in the experiment with SF-268 CNS and 42.4 µM with SF-295 CNS.
As for `Cc1cccc2c1Oc1cc(Cl)ccc1C2NC(=O)CCN1CCN(CCO)CC1` (centres undefined), the concentration for total growth inhibition (TGI) was determined as 26 µM with SF-539 CNS; 37.9 µM in the experiment with CCRF-CEM leukemia; 11.5 µM in the experiment with KM12 colon; 34.2 µM in the experiment on NCI-H460 lung; 34.2 µM in the experiment on T-47D breast; 22.8 µM in the experiment with HOP-92 NSCLC. In addition, the TGI was above 100 µM with SF-268 CNS, 34.1 µM in the experiment on HCT-15 colon and 33 µM in the experiment on SF-295 CNS.
Consider `CC1CC[C@@]2(OC1)OC1C[C@H]3[C@@H]4C/C(=N\N(C)C)[C@@]5(O)CC(O)CC[C@]5(C)[C@H]4CC[C@]3(C)C1[C@@H]2C` (some centres undefined), for which the concentration for total growth inhibition (TGI) in the experiment with SF-539 CNS, with A498 renal, with CCRF-CEM leukemia, in the experiment with KM12 colon, in the experiment on NCI-H460 lung and in the experiment on T-47D breast was above 100 µM in each case. Further, the TGI with HOP-92 NSCLC, with SF-268 CNS and in the experiment on HCT-15 colon was above 100 µM throughout.
Regarding `CCOc1ccc(/C(O)=C/c2nc3ccccc3nc2/C=C(\O)c2ccc(OCC)cc2)cc1`, the TGI in the experiment with SF-539 CNS, in the experiment on A498 renal, in the experiment on CCRF-CEM leukemia, in the experiment with NCI-H460 lung, in the experiment with T-47D breast and in the experiment with HOP-92 NSCLC was above 100 µM in each case. Moreover, the total growth inhibition concentration (TGI) with SF-268 CNS, in the experiment with HCT-15 colon and with SF-295 CNS was above 100 µM each time.
For the molecule `Cc1cccc2c1Oc1ccccc1C2NC(=O)c1ccc([N+](=O)[O-])cc1` (centres undefined), the total growth inhibition concentration (TGI) with A498 renal, in the experiment on CCRF-CEM leukemia, in the experiment on KM12 colon, with NCI-H460 lung, with T-47D breast and in the experiment with HOP-92 NSCLC was above 100 µM in each case. The concentration for total growth inhibition (TGI) with SF-268 CNS, in the experiment with HCT-15 colon and in the experiment with SF-295 CNS was above 100 µM in each case.
For `O=C1/C(=C\c2cccc(Oc3ccccc3)c2)S(=O)(=O)C(c2ccccc2)N1c1ccc(Cl)cc1` (centres undefined), the TGI in the experiment on SF-539 CNS was 41.7 µM; in the experiment on A498 renal it was above 100 µM; with CCRF-CEM leukemia it was 79.1 µM; in the experiment with KM12 colon, above 100 µM; with NCI-H460 lung, above 100 µM; in the experiment with T-47D breast, 29.9 µM. Moreover, the TGI amounted to 30.8 µM with HOP-92 NSCLC, 32.8 µM with HCT-15 colon and 41.2 µM in the experiment on SF-295 CNS.
Turning to `Cc1cn(C2CCC(/C=N\O)O2)c(=O)[nH]c1=O` (centres undefined), the TGI in the experiment with SF-539 CNS, with A498 renal, in the experiment with CCRF-CEM leukemia, with KM12 colon, in the experiment with NCI-H460 lung and in the experiment with T-47D breast was above 100 µM in each case. The TGI with HOP-92 NSCLC, in the experiment on HCT-15 colon and with SF-295 CNS was above 100 µM each time.
With `O=C1CN2Cc3cc(N4CCOCC4)ccc3N=C2N1`, the concentration for total growth inhibition (TGI) in the experiment with A498 renal, with CCRF-CEM leukemia, in the experiment on KM12 colon, in the experiment with NCI-H460 lung, in the experiment on T-47D breast and with HOP-92 NSCLC was above 100 µM in each case. In addition, the concentration for total growth inhibition (TGI) in the experiment with HCT-15 colon and with SF-295 CNS was above 100 µM in each case.
On to `CC1(c2nc3cc(Cl)c(Cl)cc3[nH]2)CCC(CO)C(C)(C)O1` (centres undefined), for which the TGI in the experiment on SF-539 CNS is 70.5 µM; with CCRF-CEM leukemia, above 100 µM; in the experiment on KM12 colon, 38.6 µM; with T-47D breast, above 100 µM; with HOP-92 NSCLC, above 100 µM; in the experiment with SF-268 CNS, above 100 µM. In addition, the TGI was above 100 µM in the experiment with HCT-15 colon and 95.3 µM in the experiment with SF-295 CNS.
Consider `COc1cc(-c2oc3c(OC)c(O)c(OC)c(O)c3c(=O)c2OC)cc(O)c1OC`, for which the TGI was 45.4 µM with SF-539 CNS; 75.4 µM in the experiment with A498 renal; 79.4 µM in the experiment with CCRF-CEM leukemia; above 100 µM with KM12 colon; above 100 µM in the experiment with T-47D breast; above 100 µM in the experiment on HOP-92 NSCLC. The TGI with HCT-15 colon is above 100 µM; in the experiment with SF-295 CNS it was 53.6 µM.
Turning to `CCCCn1c(C)c(C(=O)OCC)s/c1=N/Nc1nc2ccccc2nc1-c1ccccc1`, the concentration for total growth inhibition (TGI) in the experiment on SF-539 CNS, with A498 renal, in the experiment on CCRF-CEM leukemia, in the experiment on NCI-H460 lung, with T-47D breast and with HOP-92 NSCLC was above 100 µM in each case. Also, the TGI in the experiment with HCT-15 colon and with SF-295 CNS was above 100 µM throughout.
